This data set in a line: gradient 5% acetonitrile 3 min, to 50% in 2 min, to 85% in 15 min, held 3 min, 100 µL/min. The conditions noted are these: column: Zorbax Extend-C18 2.1 x 50 mm; eluents: water / acetonitrile, 0.1% formic acid. The method, boiled down:
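Pure standards were analyzed in mixtures of ~100 molecules using HPLC coupled to a quadrupole time-of-flight mass spectrometer, in both positive and negative ionization mode. Separation used a Zorbax Extend-C18 column (2.1 × 50 mm, 1.8 μm) at 100 μL/min, with water and acetonitrile each containing 0.1% formic acid. Dead and dwell volumes were 40 μL and 900 μL, and data were collected over 3 months. Retention time was read from computationally picked adduct peaks, each inspected manually.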
Consider `O=C(Cn1nc(N2CCOCC2)c2ccccc2c1=O)Nc1ccc(F)cc1`, for which the RP-LC retention time stood at 839 s.
The same measure for `COc1ccc(NC(=O)C2CCN(C(=O)c3nnc(C(=O)Nc4ccc(F)cc4)s3)CC2)cc1`: 903 s; for `O=C(C1CCN(c2cc(N3CCOCC3)ncn2)CC1)N1CCN(c2ccccc2)CC1`: 640 s.
The same measure for `CCn1nccc1C(=O)N1CCC2(CC1)C(=O)N(C)c1ccccc12`: 630 s; for `Cc1cc2[nH]c(C(=O)Nc3cc(F)cc(F)c3)c(CN(C)C)c2s1`: 715 s; for `CCOC(=O)c1c(NCCc2cccs2)c2cc(Cl)ccc2[nH]c1=O`: 826 s.
The same measure for `O=C(Nc1nnc(C2CC(=O)N(c3ccc(F)cc3)C2)o1)c1ccccc1Cl` (stereo unspecified): 712 s.
`CCN1CCN(C(=O)C2CC(c3ccccc3)=NO2)CC1` (stereo unspecified) had an RP-LC retention time of 593 s.
The same measure for `CC(=O)Nc1nsc(N2CCC(C(=O)N3CCN(c4cccc(Cl)c4)CC3)CC2)n1`: 731 s.
As for `Cc1nc(-n2c(C)ccc2C)sc1C(=O)NC(C)C`, the RP-LC retention time came out at 954 s.
Take `Cc1csc(-c2cc(S(=O)(=O)N3CCCc4ccccc43)c(C)s2)n1`: the RP-LC retention time came out at 1210 s.
As for `Clc1ccc2nc(N3CCOCC3)nc(-c3ccccc3)c2c1`, the RP-LC retention time is 882 s.
The same measure for `COc1ccc(CNC(=O)CCc2nc3ccc(C)cc3c(=O)n2C)cc1`: 748 s; for `Cc1ccc(-c2nc(-c3ccc4c(c3)nnn4CCC(=O)N3CCCC3)no2)c(C)c1`: 1090 s.
Molecule `Cc1noc(C)c1CNC(=O)c1ccc2[nH]ccc2c1` came in with an RP-LC retention time of 574 s.
The same measure for `COc1ccc(-c2noc(-c3ncn4c3COC(c3ccc(F)cc3)C4)n2)cc1OC` (stereo unspecified): 958 s; for `COC(=O)c1c(-c2ccc(F)cc2)noc1NCCc1cccs1`: 1090 s; for `O=C(CSCc1ccccc1)N1CC(c2nc3ccccc3[nH]2)C1`: 573 s.
The same measure for `Clc1ccc(-c2ccc(CNC3CC3)o2)c(Cl)c1`: 716 s.
The same measure for `CC(C)c1ccc(S(=O)(=O)c2ccc(=O)n(CC(=O)N3CCN(c4ccc(F)cc4)CC3)n2)cc1`: 1000 s.
Molecule `Cn1nnc2c(Nc3ccc(Br)cc3F)ncnc21` returned an RP-LC retention time of 761 s.
The same measure for `Cn1nccc1C(=O)NCc1ccc2c(c1)CCN2C(=O)c1ccc(F)cc1`: 779 s.
The same measure for `COc1cc(NC(=O)C2CCCN(c3nnc4ccccn34)C2)cc(OC)c1OC` (stereo unspecified): 634 s; for `Cc1cccc(OCC(=O)c2ccc3c(c2)N(C(C)C(=O)N2CCCC2)C(=O)CO3)c1C` (stereo unspecified): 922 s.
The same measure for `Cc1sc(-c2nnc(C(=O)N3CCCC3)o2)cc1S(=O)(=O)NCc1cccnc1`: 1310 s.
As to `COc1ccccc1-n1ccn2cc(-c3ccc(F)cc3F)nc2c1=O`, the RP-LC retention time was determined as 844 s.
The same measure for `O=C1NC(=O)C2(CCc3ccccc32)N1` (stereo unspecified): 670 s; for `O=C1CCC(C(=O)N2CCN(c3ccc(-n4cccn4)nn3)CC2)N1` (stereo unspecified): 548 s; for `O=c1c(=O)n(Cc2nc(-c3cccc(F)c3)no2)ccn1Cc1ccc(Cl)cc1`: 930 s.
The same measure for `Cc1ccc(-c2nc(-c3ccnc(N4CCCC4)c3)no2)s1`: 733 s; for `CCN1CCN(C(=O)C2CCN(CCc3cn(CC)c4ncccc34)CC2)CC1`: 525 s; for `CCOc1ccc2ncc(S(=O)(=O)c3ccc(C)cc3)c(N3CCN(C)CC3)c2c1`: 667 s.
The same measure for `COc1cc(CCC(=O)O)on1`: 658 s; for `Cc1ccccc1Nc1c(-c2ccc(Br)cc2)nc2cnccn12`: 1060 s.
In turn, `Cc1cc(N2CCN(S(=O)(=O)c3cc(F)ccc3F)CC2)nc(N2CCOCC2)n1` returned an RP-LC retention time of 660 s.
As for `COc1ccc(NC(=O)Cn2cccc2-c2nc(-c3ccc4c(c3)OCO4)no2)c(OC)c1`, the RP-LC retention time came out at 1040 s.
The same measure for `COc1cccc(CC2C(=O)Nc3ccc(Br)cc32)c1OC` (stereo unspecified): 842 s.
The same measure for `Cc1c(-c2nnc(C(=O)NCCN(C)C)o2)oc2c(C)cccc12`: 651 s; for `O=C(Nc1cccc(F)c1)C1CCN(S(=O)(=O)c2cc(-c3noc(C4CCC4)n3)cs2)CC1`: 1110 s; for `O=C(NCC1CCS(=O)(=O)C1)c1cc(-c2cccs2)[nH]n1` (stereo unspecified): 607 s.
The same measure for `CSc1ccccc1NC(=O)c1cc2ncc(Br)cn2n1`: 1020 s.
The molecule `O=C(NCC(=O)N1CCCc2ccccc21)c1cccs1` yielded an RP-LC retention time of 761 s.
`Cc1ccc(CNC(=O)c2ccc3c(=O)n(Cc4ccccc4)c(N4CCCC4)nc3c2)o1` had an RP-LC retention time of 683 s.
The same measure for `O=C(NC1CCCCCC1)C1=C2CCCN2c2ccc(F)cc2S1(=O)=O`: 970 s; for `CC(=O)N1CCN(c2nc(-c3ccncc3)nc3c2CCC3)CC1`: 576 s; for `CC1CCC(NC(=O)c2cc3sccc3n2Cc2ccc(F)cc2)CC1` (stereo unspecified): 1260 s.
The same measure for `CCCC(=O)Nc1ccc2c(c1)CN(C(=O)c1ccccc1)C(C(=O)N(C)C)C2` (stereo unspecified): 671 s; for `COc1cc(-c2noc(Cn3ncn4nc(-c5ccc(F)cc5)cc4c3=O)n2)cc(OC)c1OC`: 1020 s; for `O=C(NCc1csc(C2CCCN(C(=O)C3CCCCC3)C2)n1)C1CCC1` (stereo unspecified): 774 s.
The same measure for `CS(=O)(=O)N1CCCN(C(=O)Nc2ccccc2)CCNC(=O)CC1c1ccccc1` (stereo unspecified): 698 s; for `CCCC(=O)Nc1ccc2c(c1)CN(C(=O)c1ccc(C)cc1C)C(C(=O)N(C)C)C2` (stereo unspecified): 760 s.
`CC1=C(c2ccccc2)S(=O)(=O)N=C1N1CCCN(C(=O)c2cccnc2)CC1` returned an RP-LC retention time of 664 s.
Regarding `CCOc1ncccc1CNC(=O)C1CCC1`, the RP-LC retention time came out at 696 s.
`CC(=O)c1cccc(S(=O)(=O)NC(C)Cc2ccco2)c1` (stereo unspecified) came in with an RP-LC retention time of 770 s.
The same measure for `CCc1ccc(N2C(=O)c3c(C(=O)OC)ncn3CC2(C)C(=O)NC2CCCC2)cc1` (stereo unspecified): 615 s.
`COc1cccc(CNC(=O)C2CCN(C(=O)c3n[nH]c4ccccc34)CC2)c1` came in with an RP-LC retention time of 641 s.
The same measure for `O=C(CSc1cc(-n2cccn2)ncn1)Nc1ccccc1Br`: 965 s; for `CCCCC(=O)Nc1ccc2nc(N3CCN(C)CC3)cc(C(=O)O)c2c1`: 571 s.
The same measure for `COc1ccc(Cc2nnc3sc(COc4ccc(OC)cc4)nn23)cc1`: 902 s; for `CCNC(=O)C1CCCN(C(=O)Nc2ccc(NC(=O)Nc3ccc(F)cc3)cc2)C1` (stereo unspecified): 691 s.
Consider `CCCN1CCN(CCCNC(=O)c2sc3ncccc3c2-n2cccc2)CC1`, for which the RP-LC retention time stood at 574 s.
The same measure for `COc1ccc(NC(=O)Cn2c(=O)n(-c3ccccc3)c(=O)c3c2cc(C)n3C)cc1Cl`: 842 s.
The same measure for `COc1cc(OC)c(NC(=O)N(C)Cc2nc3cc(C(=O)N4CCCC4)ccc3n2C)cc1Cl`: 640 s; for `Nc1cc(C2CCN(C(=O)Cc3ccc(F)cc3)CC2)no1`: 684 s.
The same measure for `CN1C(=O)CS(=O)C12CCN(C(=O)Nc1ccccc1)CC2` (stereo unspecified): 599 s; for `O=C(Cn1c(=O)n(-c2ccccc2)c2ncccc21)NCCN1CCOCC1`: 585 s.
In the case of `CCCNC(=O)c1nc(Nc2ccc(CC)cc2)c2ccccc2n1`, the RP-LC retention time was found to be 813 s.
The same measure for `CCCn1cc(CCNS(=O)(=O)c2ccc(C)cc2)c2cccnc21`: 841 s; for `O=C(NCc1ccc2c(c1)OCO2)C1CCCN(c2nnc3ccccn23)C1` (stereo unspecified): 573 s; for `COc1cccc(C(=O)NCCc2c[nH]c3ccc(F)cc23)c1`: 820 s.
The molecule `COC[C@@H]1CN(Cc2ccc(F)c(Cl)c2)C[C@H]1c1nc(C)no1` yielded an RP-LC retention time of 580 s.
The same measure for `NC(=O)C1CCN(C2CC(=O)N(c3ccc(Oc4ccccc4)cc3)C2=O)CC1` (stereo unspecified): 662 s; for `COc1cc(Nc2nc(-c3nnn(-c4ccc(F)cc4)c3C)ns2)cc(OC)c1`: 990 s; for `COc1ccc(-n2ncc3c(=O)n(Cc4nc(-c5ccc(Cl)c(F)c5)no4)cnc32)cc1`: 1090 s.
The same measure for `CCN1C(=O)COc2ccc(-c3csc(NC(=O)c4ccccc4OC)n3)cc21`: 1040 s.
The same measure for `COc1ccc(-c2noc(-c3nc(C)no3)n2)c(OC)c1`: 888 s; for `O=C(O)c1ccc2c(c1Nc1ccccc1)C(=O)c1ccccc1C2=O`: 1020 s.
The molecule `CCOC(=O)CNC(=O)C1(C)Cn2c(ccc2-c2ccco2)C(=O)N1Cc1ccccc1Cl` (stereo unspecified) registered an RP-LC retention time of 876 s.
As to `CC1(C)Oc2ccc(C#N)cc2[C@@H](OC2=CC(=O)CC2)[C@@H]1O`, the RP-LC retention time came to 746 s.
The same measure for `CCCc1ccc(-c2cc(C(=O)N3CCN(c4ccccn4)CC3)c3ccccc3n2)cc1`: 857 s.
In turn, `COc1ccc(Cl)cc1NC(=O)C1CCCN(S(=O)(=O)c2cc(-c3noc(C)n3)cs2)C1` (stereo unspecified) displayed an RP-LC retention time of 1080 s.
